Where “and” joins values, the source holds several entries; their conditions need not be identical. Equal entries are not always repeated. Inconclusive results and toxic doses are left out.
Test system: BDF1 mice, P388 leukemia ip, median survival T/C
Assay: NCI In Vivo Anticancer Drug Screen. Data for tumor model P388 Leukemia (intraperitoneal) in B6D2F1 (BDF1) mice
Settings: endpoint: median survival time, higher = longer survival
How it was run: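 In tumour-bearing mice, survival after compound treatment is set against the vehicle group and given as a quotient.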

[1] = dose: 3.13 mg/kg/injection, schedule: Q01DX009 (ip), vehicle: saline with Tween-80
[2] = dose: 6.25 mg/kg/injection, schedule: Q01DX009 (ip), vehicle: saline with Tween-80
[3] = dose: 12.5 mg/kg/injection, schedule: Q01DX009 (ip), vehicle: saline with Tween-80
[4] = dose: 100.0 mg/kg/injection, schedule: Q01DX001 (ip), vehicle: Klucel (hydroxypropylcellulose) (HPC)
[5] = dose: 200.0 mg/kg/injection, schedule: Q01DX001 (ip), vehicle: Klucel (hydroxypropylcellulose) (HPC)
[6] = dose: 400.0 mg/kg/injection, schedule: Q01DX001 (ip), vehicle: Klucel (hydroxypropylcellulose) (HPC)
[7] = dose: 100.0 mg/kg/injection, schedule: Q01DX009 (ip), vehicle: saline with Tween-80
[8] = dose: 200.0 mg/kg/injection, schedule: Q01DX009 (ip), vehicle: saline with Tween-80
[9] = dose: 400.0 mg/kg/injection, schedule: Q01DX009 (ip), vehicle: saline with Tween-80
[10] = dose: 200.0 mg/kg/injection, schedule: Q04DX002 (ip), vehicle: saline with Tween-80
[11] = dose: 400.0 mg/kg/injection, schedule: Q04DX002 (ip), vehicle: saline with Tween-80
[12] = dose: 50.0 mg/kg/injection, schedule: Q01DX009 (ip), vehicle: saline
[13] = dose: 50.0 mg/kg/injection, schedule: Q04DX003 (ip), vehicle: saline
[14] = dose: 100.0 mg/kg/injection, schedule: Q04DX003 (ip), vehicle: saline
[15] = dose: 100.0 mg/kg/injection, schedule: Q01DX009 (ip), vehicle: saline
[16] = dose: 200.0 mg/kg/injection, schedule: Q01DX009 (ip), vehicle: saline
[17] = dose: 100.0 mg/kg/injection, schedule: Q01DX009 (ip), vehicle: Klucel (hydroxypropylcellulose) (HPC)
[18] = dose: 100.0 mg/kg/injection, schedule: Q04DX003 (ip), vehicle: Klucel (hydroxypropylcellulose) (HPC)
[19] = dose: 200.0 mg/kg/injection, schedule: Q01DX009 (ip), vehicle: Klucel (hydroxypropylcellulose) (HPC)
[20] = dose: 200.0 mg/kg/injection, schedule: Q04DX003 (ip), vehicle: Klucel (hydroxypropylcellulose) (HPC)
[21] = dose: 400.0 mg/kg/injection, schedule: Q04DX003 (ip), vehicle: Klucel (hydroxypropylcellulose) (HPC)

## CCCC[S+](CCCC)CC(=O)c1ccc(-c2ccccc2)cc1
dose: 1.56 mg/kg/injection, schedule: Q01DX009 (ip), vehicle: saline with Tween-80
  T/C: 105 % of control
[1]
  T/C: 100 % of control
[2]
  T/C: 106 % of control
[3]
  T/C: 107 % of control
dose: 25.0 mg/kg/injection, schedule: Q01DX009 (ip), vehicle: saline with Tween-80
  T/C: 113 % of control

## CCOC(=O)c1ccc(NCc2cccc([N+](=O)[O-])c2)cc1
[4]
  T/C: 115 % of control
[5]
  T/C: 100 % of control
[6]
  T/C: 93 % of control

## CC(=O)OC1CCC2(C)C3=C(CCC2C1(C)C)C1(C)CCC(c2ccc(C(C)C)oc2=O)C1(C)CC3 (centres undefined)
dose: 70.0 mg/kg/injection, schedule: Q01DX010 (ip), vehicle: carboxymethylcellulose (CMC)
  T/C: 90 % of control
dose: 140.0 mg/kg/injection, schedule: Q01DX010 (ip), vehicle: carboxymethylcellulose (CMC)
  T/C: 90 % of control
dose: 280.0 mg/kg/injection, schedule: Q01DX010 (ip), vehicle: carboxymethylcellulose (CMC)
  T/C: 90 % of control

## COc1ccc(SC2=C(N(C)C(C)=O)C(=O)c3ccccc3C2=O)cc1
dose: 0.93 mg/kg/injection, schedule: Q01DX009 (ip), vehicle: Klucel (hydroxypropylcellulose) (HPC)
  T/C: 109 % of control
dose: 1.87 mg/kg/injection, schedule: Q01DX009 (ip), vehicle: Klucel (hydroxypropylcellulose) (HPC)
  T/C: 113 % of control
dose: 3.75 mg/kg/injection, schedule: Q01DX009 (ip), vehicle: Klucel (hydroxypropylcellulose) (HPC)
  T/C: 113 % of control
dose: 7.5 mg/kg/injection, schedule: Q01DX009 (ip), vehicle: Klucel (hydroxypropylcellulose) (HPC)
  T/C: 108 % of control
dose: 11.0 mg/kg/injection, schedule: Q04DX003 (ip), vehicle: Klucel (hydroxypropylcellulose) (HPC)
  T/C: 100 % of control
dose: 17.0 mg/kg/injection, schedule: Q04DX003 (ip), vehicle: Klucel (hydroxypropylcellulose) (HPC)
  T/C: 100 % of control

## COc1ccc(C(C#N)Nc2ccccc2)cc1 (centres undefined)
[7]
  T/C: 105 % of control
dose: 100.0 mg/kg/injection, schedule: Q04DX003 (ip), vehicle: saline with Tween-80
  T/C: 109 % of control
[8]
  T/C: 110 % of control
dose: 200.0 mg/kg/injection, schedule: Q04DX003 (ip), vehicle: saline with Tween-80
  T/C: 100 % of control
[9]
  T/C: 95 % of control
dose: 400.0 mg/kg/injection, schedule: Q04DX003 (ip), vehicle: saline with Tween-80
  T/C: 109 % of control

## OC1c2ccccc2-c2ccccc2C1O (centres undefined)
[10]
  T/C: 153 % of control
[11]
  T/C: 155 % of control

## COc1ccc(CCNC(=O)/C=C\C(=O)O)cc1OC
[7]
  T/C: 95 % of control
[8]
  T/C: 95 % of control
[9]
  T/C: 100 % of control

## CC(=O)c1c(C)[nH]c(C(=O)OC(C)(C)C)c1C
[4]
  T/C: 113 % of control
[5]
  T/C: 100 % of control
[6]
  T/C: 109 % of control

## CC1CN1P(=O)(N1CC1C)N1CC1C (centres undefined)
dose: 25.0 mg/kg/injection, schedule: Q01DX009 (ip), vehicle: saline
  T/C: 100 % of control
dose: 33.0 mg/kg/injection, schedule: Q04DX003 (ip), vehicle: saline
  T/C: 222 % of control
[12]
  T/C: 105 % of control
[13]
  T/C: 177 % of control and 186 % of control
dose: 75.0 mg/kg/injection, schedule: Q04DX003 (ip), vehicle: saline
  T/C: 250 % of control and 116 % of control
[14]
  T/C: 236 % of control

## OCc1cncc(F)c1
[12]
  T/C: 103 % of control
[15]
  T/C: 103 % of control
[16]
  T/C: 103 % of control

## COc1cc(N(CCCl)CCCl)ccc1/C=N\NC(=O)c1cccnc1
dose: 25.0 mg/kg/injection, schedule: Q01DX009 (ip), vehicle: Klucel (hydroxypropylcellulose) (HPC)
  T/C: 98 % of control
dose: 50.0 mg/kg/injection, schedule: Q01DX009 (ip), vehicle: Klucel (hydroxypropylcellulose) (HPC)
  T/C: 97 % of control
[17]
  T/C: 112 % of control

## CC1CC(C)(C)N=C(CCC[N+](=O)[O-])O1 (centres undefined)
dose: 50.0 mg/kg/injection, schedule: Q04DX003 (ip), vehicle: saline sonified
  T/C: 105 % of control
dose: 100.0 mg/kg/injection, schedule: Q04DX003 (ip), vehicle: saline sonified
  T/C: 105 % of control
dose: 200.0 mg/kg/injection, schedule: Q04DX003 (ip), vehicle: saline sonified
  T/C: 105 % of control

## CN(C)C1CCc2[nH]c3c(F)cc(F)cc3c2C1 (centres undefined)
[1]
  T/C: 95 % of control
[2]
  T/C: 103 % of control
[3]
  T/C: 101 % of control

## COc1cc2c3c(c4ccc(OC)c(OC)c4c2cc1OC)CN1CCC[C@@H]1C3
dose: 1.25 mg/kg/injection, schedule: Q01DX010 (ip), vehicle: saline
  T/C: 113 % of control
dose: 2.5 mg/kg/injection, schedule: Q01DX010 (ip), vehicle: saline
  T/C: 154 % of control
dose: 6.0 mg/kg/injection, schedule: Q01DX010 (ip), vehicle: water
  T/C: 150 % of control
dose: 8.0 mg/kg/injection, schedule: Q01DX010 (ip), vehicle: water
  T/C: 170 % of control
dose: 10.0 mg/kg/injection, schedule: Q01DX010 (ip), vehicle: saline
  T/C: 150 % of control
dose: 10.0 mg/kg/injection, schedule: Q01DX010 (ip), vehicle: water
  T/C: 90 % of control

## c1ccc(C[P+](c2ccccc2)(c2ccccc2)c2ccccc2)cc1
dose: 3.13 mg/kg/injection, schedule: Q01DX009 (ip), vehicle: Klucel (hydroxypropylcellulose) (HPC)
  T/C: 104 % of control
dose: 3.13 mg/kg/injection, schedule: Q04DX003 (ip), vehicle: Klucel (hydroxypropylcellulose) (HPC)
  T/C: 104 % of control
dose: 6.25 mg/kg/injection, schedule: Q01DX009 (ip), vehicle: Klucel (hydroxypropylcellulose) (HPC)
  T/C: 118 % of control
dose: 6.25 mg/kg/injection, schedule: Q04DX003 (ip), vehicle: Klucel (hydroxypropylcellulose) (HPC)
  T/C: 113 % of control
dose: 12.5 mg/kg/injection, schedule: Q04DX003 (ip), vehicle: Klucel (hydroxypropylcellulose) (HPC)
  T/C: 118 % of control

## CCOC(=S)N/N=C(\C)CC
dose: 2.5 mg/kg/injection, schedule: Q01DX009 (ip), vehicle: saline with Tween-80
  T/C: 93 % of control
dose: 5.0 mg/kg/injection, schedule: Q01DX009 (ip), vehicle: saline with Tween-80
  T/C: 93 % of control

## CNc1nc2c(N)ncnc2n1C1OC(CO)C(O)C1O (centres undefined)
[2]
  T/C: 105 % of control
[3]
  T/C: 123 % of control

## CC1(c2ccco2)NC(=O)N(Cl)C1=O (centres undefined)
[12]
  T/C: 89 % of control
[15]
  T/C: 98 % of control
[16]
  T/C: 105 % of control

## c1ccc(NNC(c2ccccc2)(c2ccccc2)c2ccccc2)cc1
[17]
  T/C: 90 % of control
[18]
  T/C: 104 % of control
[19]
  T/C: 100 % of control
[20]
  T/C: 91 % of control
dose: 400.0 mg/kg/injection, schedule: Q01DX009 (ip), vehicle: Klucel (hydroxypropylcellulose) (HPC)
  T/C: 90 % of control
[21]
  T/C: 95 % of control

## O=C(Nc1ccc(Cc2ccc(NC(=O)Nc3nc4ccccc4s3)cc2)cc1)Nc1nc2ccccc2s1
dose: 50.0 mg/kg/injection, schedule: Q01DX009 (ip), vehicle: saline with Tween-80
  T/C: 94 % of control
[7]
  T/C: 89 % of control
[8]
  T/C: 100 % of control

## COC1(F)C2(Cl)C=C(c3ccccc3)C1(Cl)C(Cl)=C2Cl (centres undefined)
dose: 100.0 mg/kg/injection, schedule: Q04DX002 (ip), vehicle: saline with Tween-80
  T/C: 101 % of control
[10]
  T/C: 111 % of control
[11]
  T/C: 100 % of control

## S
[17]
  T/C: 100 % of control
[18]
  T/C: 86 % of control
[19]
  T/C: 110 % of control
[20]
  T/C: 100 % of control
[21]
  T/C: 100 % of control

## C=CCN(CC=C)CC=C
dose: 25.0 mg/kg/injection, schedule: Q04DX003 (ip), vehicle: saline
  T/C: 111 % of control
[13]
  T/C: 108 % of control
[14]
  T/C: 111 % of control

## Nc1ccc2nc3ccccc3c(NCCCCCCCCNc3c4ccccc4nc4ccc(N)cc34)c2c1
dose: 2.5 mg/kg/injection, schedule: Q01DX009 (ip), vehicle: water
  T/C: 154 % of control
dose: 10.0 mg/kg/injection, schedule: Q01DX009 (ip), vehicle: water
  T/C: 165 % of control

Reference: PubChem BioAssay AID328 (DTP/NCI, 2004)
